Molecular target: T1, dnHEM1 (synthetic construct, UniProt Z9V042XZY6)
T1 construct: de novo alpha-helical closed solenoid (toroid) from designed scaffold PDB 4YXX, redesigned with Rosetta, surface desymmetrized by K29W and K165Y (already part of dnHEM1); expressed in E. coli; monomer
T1 sequence (Z9V042XZY6 1-210): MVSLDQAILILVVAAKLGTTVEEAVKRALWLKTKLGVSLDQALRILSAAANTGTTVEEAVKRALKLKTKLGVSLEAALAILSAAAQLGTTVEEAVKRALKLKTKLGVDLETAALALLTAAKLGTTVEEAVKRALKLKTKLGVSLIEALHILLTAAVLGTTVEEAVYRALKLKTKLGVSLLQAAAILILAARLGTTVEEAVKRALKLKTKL
Assay: UV/Vis titration of hemin into apo-protein, absorbance at […] nm
Format: binding

C=CC1=C(C)C2=Cc3c(C=C)c(C)c4[n]3[Fe]([Cl])[n]3c(c(C)c(CCC(=O)O)c3=CC3=NC(=C4)C(C)=C3CCC(=O)O)=CC1=N2 [hemin]
Kd: 2.5 ± 1.2 nM

Reference: PMC10326885, “Design of Heme Enzymes with a Tunable Substrate Binding Pocket Adjacent to an Open Metal Coordination Site” (Journal of the American Chemical Society, 2023)
